Experiments:
Experiment in all cases: colorimetric pNPG hydrolysis, […] nm
[1] = target: T1, Rat α-glucosidase; format: biochemical; conditions: pNPG substrate; 0.1 M potassium phosphate pH 7; 37 °C; 20 min pre-incubation, 60 min reaction
T1 construct: gene Si; Sigma Aldrich preparation

[2] = target: T2, Saccharomyces cerevisiae (yeast) α-glucosidase; format: biochemical; conditions: pNPG substrate; 0.1 M potassium phosphate pH 7; 37 °C; 20 min pre-incubation, 30 min reaction
T2 construct: gene MAL12

[3] = target: T3, Rice α-glucosidase (Type 4); format: biochemical, Oryza sativa; conditions: pNPG substrate; 0.1 M potassium phosphate pH 7; 37 °C; 20 min pre-incubation, 30 min reaction
T3 construct: gene Os06g0675700

C[C@H]1O[C@H](O[C@H]2[C@H](O)[C@@H](O)[C@@H](O[C@H]3[C@H](O)[C@@H](O)C(O)O[C@@H]3CO)O[C@@H]2CO)[C@H](O)[C@@H](O)[C@@H]1N[C@H]1C=C(CO)[C@@H](O)[C@H](O)[C@H]1O (stereo partly drawn) [acarbose, reference compound]
Inhibition Expressed as EC50 (mg/mL) / Acarbose [1]: 0.121 ± 0.001 mg/mL | Inhibition Expressed as EC50 (mg/mL) / Acarbose [2]: 1.321 ± 0.048 mg/mL | Inhibition Expressed as EC50 (mg/mL) / Acarbose [3]: 0.031 ± 0.005 mg/mL

COc1ccc(C2COc3cc(O)ccc3C2=O)c(OC)c1 (stereo not drawn) [compound 1, sativanone]
Inhibition Expressed as EC50 (mg/mL) / Sativanone [1]: 0.37 ± 0.022 mg/mL | Inhibition Expressed as EC50 (mg/mL) / Sativanone [2]: 0.23 ± 0.012 mg/mL | Inhibition Expressed as EC50 (mg/mL) / Sativanone [3]: 0.81 ± 0.023 mg/mL

COc1ccc(-c2coc3cc(O)ccc3c2=O)cc1 [compound 2, formononetin]
Inhibition Expressed as EC50 (mg/mL) / Formononetin [1]: 0.23 ± 0.037 mg/mL | Inhibition Expressed as EC50 (mg/mL) / Formononetin [2]: 0.06 ± 0.002 mg/mL | Inhibition Expressed as EC50 (mg/mL) / Formononetin [3]: 0.98 ± 0.029 mg/mL

Source: article PMC6099635, “New Records of Potent In-Vitro Antidiabetic Properties of Dalbergia tonkinensis Heartwood and the Bioactivity-Guided Isolation of Active Compounds” (Molecules : A Journal of Synthetic Chemistry and Natural …, 2018)
